Inhibition and fold change (FC) data for three molecules are collected here from ChEMBL document CHEMBL5653631, “A Potent and Selective ULK1 Inhibitor Suppresses Autophagy and Sensitizes Cancer Cells to Nutrient Stress” (iScience, 2018).

Assay [1] addresses cAMP-dependent protein kinase catalytic subunit alpha (Homo sapiens) (UniProt P17612). Briefly: Inhibition of human recombinant PKACalpha at 15 nM in presence of ATP by radiometric assay relative to control.
Assay [2] deals with Dual specificity protein kinase CLK3 (Homo sapiens) (UniProt P49761). The experiment in a line: Inhibition of human recombinant CLK3 at 15 nM related to control ULK1.
Sequence of Dual specificity protein kinase CLK3 (Homo sapiens) (P49761 whole entry, looked up): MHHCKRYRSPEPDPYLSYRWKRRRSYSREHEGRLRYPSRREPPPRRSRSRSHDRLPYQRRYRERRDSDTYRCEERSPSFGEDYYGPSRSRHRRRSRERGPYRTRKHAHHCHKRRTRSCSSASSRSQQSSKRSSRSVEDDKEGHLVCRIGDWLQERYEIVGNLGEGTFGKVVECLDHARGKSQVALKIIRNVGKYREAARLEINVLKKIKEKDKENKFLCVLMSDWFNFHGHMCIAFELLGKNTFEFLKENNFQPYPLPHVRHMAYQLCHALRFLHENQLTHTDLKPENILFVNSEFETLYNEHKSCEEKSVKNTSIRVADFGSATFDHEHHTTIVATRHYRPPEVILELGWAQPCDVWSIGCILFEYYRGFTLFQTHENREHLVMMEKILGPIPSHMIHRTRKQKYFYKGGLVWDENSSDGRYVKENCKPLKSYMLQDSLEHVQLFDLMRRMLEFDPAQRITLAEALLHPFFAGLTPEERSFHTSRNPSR
In assay [3] the target is Ribosomal protein S6 kinase alpha-6 (Homo sapiens) (UniProt Q9UK32). Briefly: Inhibition of human recombinant RSK4 at 15 nM in presence of ATP by radiometric assay relative to control.
Sequence of Ribosomal protein S6 kinase alpha-6 (Homo sapiens) (Q9UK32 whole entry): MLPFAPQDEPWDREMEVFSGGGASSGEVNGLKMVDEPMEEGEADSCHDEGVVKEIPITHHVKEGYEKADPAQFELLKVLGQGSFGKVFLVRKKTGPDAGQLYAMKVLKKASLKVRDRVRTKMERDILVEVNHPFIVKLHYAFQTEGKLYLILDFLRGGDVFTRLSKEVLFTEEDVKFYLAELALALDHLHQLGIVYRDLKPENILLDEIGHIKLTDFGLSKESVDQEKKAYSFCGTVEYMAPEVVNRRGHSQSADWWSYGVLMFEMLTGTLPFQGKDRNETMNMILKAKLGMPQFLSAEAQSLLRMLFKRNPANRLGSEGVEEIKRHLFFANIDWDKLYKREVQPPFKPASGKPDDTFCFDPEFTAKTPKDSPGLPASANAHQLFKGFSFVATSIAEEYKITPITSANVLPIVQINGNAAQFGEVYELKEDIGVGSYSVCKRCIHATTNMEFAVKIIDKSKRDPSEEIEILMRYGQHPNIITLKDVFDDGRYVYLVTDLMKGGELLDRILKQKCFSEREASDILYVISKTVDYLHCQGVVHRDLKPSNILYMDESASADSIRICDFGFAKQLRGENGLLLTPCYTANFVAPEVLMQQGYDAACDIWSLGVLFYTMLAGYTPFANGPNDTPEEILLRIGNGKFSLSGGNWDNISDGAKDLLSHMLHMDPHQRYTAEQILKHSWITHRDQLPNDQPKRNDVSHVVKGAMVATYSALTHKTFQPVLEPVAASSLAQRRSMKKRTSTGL
For assay [4], the target named is 3-phosphoinositide-dependent protein kinase 1 (Homo sapiens) (UniProt O15530). The experiment in a line: Inhibition of human recombinant PDK1 at 40 nM related to control ULK1.
Assay [5] addresses Calcium/calmodulin-dependent protein kinase type II subunit alpha (Homo sapiens) (UniProt Q9UQM7). Briefly: Inhibition of human recombinant CaMK2a at 40 nM in presence of ATP by radiometric assay relative to control.
The target of assay [6] is Tyrosine-protein kinase Yes (Homo sapiens) (UniProt P07947). The experiment in a line: Inhibition of human recombinant YES at 40 nM related to control ULK1.
Assay [7] concerns the target Insulin receptor-related protein (Homo sapiens) (UniProt P14616). The experiment in a line: Inhibition of human recombinant IRR at 40 nM in presence of ATP by radiometric assay relative to control.
Assay [8] has as its target Receptor-type tyrosine-protein kinase FLT3 (Homo sapiens) (UniProt P36888). Briefly: Inhibition of human recombinant FLT3 at 40 nM in presence of ATP by radiometric assay relative to control.
Assay [9] deals with T1, Eukaryotic elongation factor 2 kinase (Homo sapiens) (UniProt O00418).
T1 sequence (whole entry): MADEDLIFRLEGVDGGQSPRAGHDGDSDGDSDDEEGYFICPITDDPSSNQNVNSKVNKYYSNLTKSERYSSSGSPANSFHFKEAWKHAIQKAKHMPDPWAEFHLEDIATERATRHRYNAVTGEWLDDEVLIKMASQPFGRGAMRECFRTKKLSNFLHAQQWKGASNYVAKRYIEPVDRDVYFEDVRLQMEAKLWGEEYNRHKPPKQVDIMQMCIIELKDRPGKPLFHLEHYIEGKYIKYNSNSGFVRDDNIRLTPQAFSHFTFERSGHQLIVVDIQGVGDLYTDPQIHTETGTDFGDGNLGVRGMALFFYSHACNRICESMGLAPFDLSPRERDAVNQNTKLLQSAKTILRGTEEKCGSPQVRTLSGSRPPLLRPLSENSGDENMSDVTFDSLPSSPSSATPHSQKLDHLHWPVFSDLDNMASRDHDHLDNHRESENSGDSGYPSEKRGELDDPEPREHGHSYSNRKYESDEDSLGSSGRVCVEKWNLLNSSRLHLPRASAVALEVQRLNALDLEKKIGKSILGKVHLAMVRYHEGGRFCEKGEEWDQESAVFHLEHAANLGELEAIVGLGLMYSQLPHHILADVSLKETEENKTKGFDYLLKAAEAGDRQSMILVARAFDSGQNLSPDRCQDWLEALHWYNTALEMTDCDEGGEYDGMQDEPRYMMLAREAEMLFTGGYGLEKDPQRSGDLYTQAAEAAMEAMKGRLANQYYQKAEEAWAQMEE
The experiment in a line: Inhibition of human recombinant eEF2K at 40 nM related to control ULK1.

Assay [10] addresses [Pyruvate dehydrogenase (acetyl-transferring)] kinase isozyme 4, mitochondrial (Homo sapiens) (UniProt Q16654). Briefly: Inhibition of human recombinant PDHK4 at 40 nM in presence of ATP by radiometric assay relative to control.
Assay [11] addresses T2, Ephrin type-B receptor 1 (Homo sapiens) (UniProt P54762).
T2 sequence (whole entry): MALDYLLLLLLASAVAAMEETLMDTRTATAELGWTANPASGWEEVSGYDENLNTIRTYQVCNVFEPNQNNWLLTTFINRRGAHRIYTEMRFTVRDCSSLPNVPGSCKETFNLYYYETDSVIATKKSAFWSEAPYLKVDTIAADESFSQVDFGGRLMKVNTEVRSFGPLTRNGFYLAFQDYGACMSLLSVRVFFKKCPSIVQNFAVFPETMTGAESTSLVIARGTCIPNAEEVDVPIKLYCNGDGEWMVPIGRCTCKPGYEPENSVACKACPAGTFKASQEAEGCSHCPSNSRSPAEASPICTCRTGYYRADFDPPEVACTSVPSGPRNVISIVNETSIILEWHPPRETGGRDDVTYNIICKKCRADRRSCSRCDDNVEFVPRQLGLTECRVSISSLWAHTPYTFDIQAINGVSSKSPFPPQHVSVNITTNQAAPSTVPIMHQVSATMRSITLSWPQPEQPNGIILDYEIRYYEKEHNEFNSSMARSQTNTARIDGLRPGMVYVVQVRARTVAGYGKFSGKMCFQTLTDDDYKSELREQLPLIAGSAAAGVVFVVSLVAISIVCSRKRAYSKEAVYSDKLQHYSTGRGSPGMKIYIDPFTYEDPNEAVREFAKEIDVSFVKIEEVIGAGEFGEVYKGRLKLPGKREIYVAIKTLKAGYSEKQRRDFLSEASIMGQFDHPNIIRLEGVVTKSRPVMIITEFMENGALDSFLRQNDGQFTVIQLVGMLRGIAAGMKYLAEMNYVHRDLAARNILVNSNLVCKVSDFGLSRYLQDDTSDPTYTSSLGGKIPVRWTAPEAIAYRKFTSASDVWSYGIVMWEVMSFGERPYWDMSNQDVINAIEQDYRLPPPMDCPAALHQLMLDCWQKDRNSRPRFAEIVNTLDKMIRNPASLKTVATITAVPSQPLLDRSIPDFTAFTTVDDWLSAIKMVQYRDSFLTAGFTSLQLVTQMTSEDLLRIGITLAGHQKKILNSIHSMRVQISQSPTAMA
Briefly: Inhibition of human recombinant EphB1 at 40 nM related to control ULK1.

For assay [12], the target named is Cyclin-dependent kinase 13 (Homo sapiens) (UniProt Q14004). Briefly: Inhibition of human recombinant CHED at 40 nM related to control ULK1.
Sequence of Cyclin-dependent kinase 13 (Homo sapiens) (Q14004 whole entry, looked up): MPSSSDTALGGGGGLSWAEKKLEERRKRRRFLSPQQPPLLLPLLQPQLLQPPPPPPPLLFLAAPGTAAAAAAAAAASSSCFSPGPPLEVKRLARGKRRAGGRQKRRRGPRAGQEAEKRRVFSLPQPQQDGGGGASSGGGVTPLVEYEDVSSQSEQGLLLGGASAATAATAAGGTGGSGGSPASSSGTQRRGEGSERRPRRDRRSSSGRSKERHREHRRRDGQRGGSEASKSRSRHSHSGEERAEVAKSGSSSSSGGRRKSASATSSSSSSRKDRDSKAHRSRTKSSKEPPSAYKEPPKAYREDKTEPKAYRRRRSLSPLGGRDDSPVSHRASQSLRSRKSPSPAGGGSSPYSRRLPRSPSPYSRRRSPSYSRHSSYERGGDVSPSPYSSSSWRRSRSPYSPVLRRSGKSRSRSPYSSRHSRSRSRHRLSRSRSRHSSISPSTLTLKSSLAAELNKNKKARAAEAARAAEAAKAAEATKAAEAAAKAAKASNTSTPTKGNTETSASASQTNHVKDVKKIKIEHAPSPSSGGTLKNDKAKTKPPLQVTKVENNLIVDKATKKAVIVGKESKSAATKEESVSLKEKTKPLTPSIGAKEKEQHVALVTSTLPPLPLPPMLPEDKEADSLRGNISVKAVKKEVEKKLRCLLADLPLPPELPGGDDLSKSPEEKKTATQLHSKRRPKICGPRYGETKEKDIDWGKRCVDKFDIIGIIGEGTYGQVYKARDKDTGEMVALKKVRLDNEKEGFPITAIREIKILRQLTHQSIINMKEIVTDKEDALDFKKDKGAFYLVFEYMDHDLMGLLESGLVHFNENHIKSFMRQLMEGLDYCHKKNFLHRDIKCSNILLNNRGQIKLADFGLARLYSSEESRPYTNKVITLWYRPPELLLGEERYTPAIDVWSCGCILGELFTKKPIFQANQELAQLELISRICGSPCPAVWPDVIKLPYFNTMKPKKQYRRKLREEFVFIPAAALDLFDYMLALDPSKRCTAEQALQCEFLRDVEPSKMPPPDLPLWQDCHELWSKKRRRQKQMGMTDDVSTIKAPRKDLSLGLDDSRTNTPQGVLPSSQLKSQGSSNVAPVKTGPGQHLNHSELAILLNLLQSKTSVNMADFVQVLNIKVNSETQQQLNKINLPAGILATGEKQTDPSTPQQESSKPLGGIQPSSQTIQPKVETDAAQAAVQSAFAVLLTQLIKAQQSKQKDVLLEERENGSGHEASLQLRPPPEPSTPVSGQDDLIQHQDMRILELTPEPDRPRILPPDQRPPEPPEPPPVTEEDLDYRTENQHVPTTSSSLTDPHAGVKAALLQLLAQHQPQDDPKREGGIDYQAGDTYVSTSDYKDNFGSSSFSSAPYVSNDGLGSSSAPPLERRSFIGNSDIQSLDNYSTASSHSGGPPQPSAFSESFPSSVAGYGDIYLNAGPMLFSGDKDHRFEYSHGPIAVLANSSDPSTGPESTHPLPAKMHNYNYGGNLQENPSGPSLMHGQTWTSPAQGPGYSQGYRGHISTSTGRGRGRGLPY
The target of assay [13] is G protein-coupled receptor kinase 6 (Homo sapiens) (UniProt P43250). Briefly: Inhibition of human recombinant GPRK6 at 500 nM related to control ULK1.
In assay [14] the target is Ephrin type-A receptor 4 (Homo sapiens) (UniProt P54764). The experiment in a line: Inhibition of human recombinant EphA4 at 500 nM related to control ULK1.
Assay [15] concerns the target Calcium/calmodulin-dependent protein kinase type 1B (Homo sapiens) (UniProt Q6P2M8). Briefly: Inhibition of human recombinant CaMK1b at 500 nM in presence of ATP by radiometric assay relative to control.
Assay [16] has as its target Macrophage-stimulating protein receptor (Homo sapiens) (UniProt Q04912). The experiment in a line: Inhibition of human recombinant RON at 500 nM related to control ULK1.
In assay [17] the target is Protein kinase C beta type (Homo sapiens) (UniProt P05771). The experiment in a line: Inhibition of human recombinant PKCb at 500 nM related to control ULK1.

Sequence of Calcium/calmodulin-dependent protein kinase type II subunit alpha (Homo sapiens) (Q9UQM7 whole entry): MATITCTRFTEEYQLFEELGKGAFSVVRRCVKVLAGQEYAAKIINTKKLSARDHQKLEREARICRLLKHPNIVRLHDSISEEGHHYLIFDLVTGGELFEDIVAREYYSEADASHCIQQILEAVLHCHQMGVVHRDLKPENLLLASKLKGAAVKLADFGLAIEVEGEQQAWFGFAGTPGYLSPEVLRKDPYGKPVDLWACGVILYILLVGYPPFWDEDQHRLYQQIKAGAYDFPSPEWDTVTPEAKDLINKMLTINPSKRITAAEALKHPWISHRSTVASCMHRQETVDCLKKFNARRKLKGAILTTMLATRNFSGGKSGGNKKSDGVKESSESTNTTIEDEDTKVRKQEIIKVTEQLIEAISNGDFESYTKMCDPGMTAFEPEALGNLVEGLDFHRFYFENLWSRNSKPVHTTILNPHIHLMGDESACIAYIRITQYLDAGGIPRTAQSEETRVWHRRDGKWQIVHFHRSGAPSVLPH
Sequence of Macrophage-stimulating protein receptor (Homo sapiens) (Q04912 25-304 limits assumed): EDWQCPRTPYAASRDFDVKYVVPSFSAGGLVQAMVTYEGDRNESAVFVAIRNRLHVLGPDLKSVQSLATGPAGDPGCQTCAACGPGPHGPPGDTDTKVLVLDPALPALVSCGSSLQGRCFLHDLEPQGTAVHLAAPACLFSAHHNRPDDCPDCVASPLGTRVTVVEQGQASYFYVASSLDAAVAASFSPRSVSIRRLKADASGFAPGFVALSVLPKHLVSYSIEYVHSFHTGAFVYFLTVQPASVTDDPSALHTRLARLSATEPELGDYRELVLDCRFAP
Sequence of Macrophage-stimulating protein receptor (Homo sapiens) (Q04912 310-1400 limits assumed): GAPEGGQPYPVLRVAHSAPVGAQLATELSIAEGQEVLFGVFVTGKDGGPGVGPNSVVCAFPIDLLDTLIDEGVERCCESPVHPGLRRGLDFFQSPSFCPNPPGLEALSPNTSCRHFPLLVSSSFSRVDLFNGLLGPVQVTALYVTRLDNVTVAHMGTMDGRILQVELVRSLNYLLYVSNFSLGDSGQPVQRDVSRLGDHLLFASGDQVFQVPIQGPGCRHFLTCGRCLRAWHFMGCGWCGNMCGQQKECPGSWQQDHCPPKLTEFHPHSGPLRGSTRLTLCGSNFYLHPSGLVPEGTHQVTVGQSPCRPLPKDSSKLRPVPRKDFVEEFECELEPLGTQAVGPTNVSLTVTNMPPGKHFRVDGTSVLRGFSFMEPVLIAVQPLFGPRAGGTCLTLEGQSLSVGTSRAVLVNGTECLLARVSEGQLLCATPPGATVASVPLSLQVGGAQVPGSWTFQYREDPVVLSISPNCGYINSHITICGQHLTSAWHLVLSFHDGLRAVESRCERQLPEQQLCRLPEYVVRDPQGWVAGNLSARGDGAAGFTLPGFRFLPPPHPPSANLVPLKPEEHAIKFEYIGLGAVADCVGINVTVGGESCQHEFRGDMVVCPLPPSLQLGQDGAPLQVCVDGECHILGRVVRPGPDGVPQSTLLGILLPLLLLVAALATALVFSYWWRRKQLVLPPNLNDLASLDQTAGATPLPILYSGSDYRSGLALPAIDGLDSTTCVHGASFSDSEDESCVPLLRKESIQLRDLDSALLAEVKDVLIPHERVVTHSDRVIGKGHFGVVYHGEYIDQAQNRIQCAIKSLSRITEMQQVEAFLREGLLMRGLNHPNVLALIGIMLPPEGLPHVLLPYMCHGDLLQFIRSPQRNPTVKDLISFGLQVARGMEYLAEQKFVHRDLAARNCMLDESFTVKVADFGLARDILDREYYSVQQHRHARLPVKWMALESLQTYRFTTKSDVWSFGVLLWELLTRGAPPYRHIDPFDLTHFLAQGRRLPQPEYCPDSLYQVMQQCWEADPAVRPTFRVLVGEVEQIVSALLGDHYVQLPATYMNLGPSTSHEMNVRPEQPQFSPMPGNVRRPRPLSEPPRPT
Sequence of Calcium/calmodulin-dependent protein kinase type 1B (Homo sapiens) (Q6P2M8 whole entry): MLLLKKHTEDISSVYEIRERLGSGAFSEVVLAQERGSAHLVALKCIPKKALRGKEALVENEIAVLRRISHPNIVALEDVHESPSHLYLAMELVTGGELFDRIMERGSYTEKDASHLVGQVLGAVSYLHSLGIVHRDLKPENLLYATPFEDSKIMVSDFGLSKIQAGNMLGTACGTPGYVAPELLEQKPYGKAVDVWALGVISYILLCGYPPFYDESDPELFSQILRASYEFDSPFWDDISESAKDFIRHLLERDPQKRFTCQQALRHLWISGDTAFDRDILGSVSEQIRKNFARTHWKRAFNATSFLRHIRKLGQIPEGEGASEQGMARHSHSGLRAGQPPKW

For the molecule `CC(C)[C@H](NC(=O)c1cc(-c2cnn3cc(-c4ccc(OCCN5CCCCC5)cc4)cnc23)cs1)C(F)(F)F`, the inhibition in assay [1] and in assay [3] was 0% in each case. Further, the fold change (FC) in assay [2] was 0.01.
With `O=C(N[C@@H](C1CC1)C(F)(F)F)c1cc(-c2cnn3cc(-c4ccc(F)cc4)cnc23)cs1`, the fold change (FC) in assay [4] was 0; in [6], 0.32; in [9], 0.1; in [11], 0.01; in [12] it was 0.05. For the same molecule, the inhibition was 0% in [5], 2% in [7], 19% in assay [8] and 0% in [10].
For the molecule `CNC(=O)c1ccccc1Oc1nc(Nc2cc(OC)c(OC)c(OC)c2)ncc1Br`, the fold change (FC) in [13] is 0.16; in [14] it was 0.2; in assay [16], 0.01; in assay [17], 0.09. Further, the inhibition in assay [15] amounted to 0%.

By inhibition is commonly meant how much of the control response was suppressed.
